# Test results: patent US8431523B2, “Oligomeric biosurfactants in dermatocosmetic compositions” (priority 2006, dated 2013)
# Non-standard residues stand in square brackets, D forms with d. Residues, ends and D or L forms follow the SMILES beside them. *: point of attachment. Palmitoyl = CCCCCCCCCCCCCCCC(=O)*; Myristoyl = CCCCCCCCCCCCCC(=O)*
# Tested on: fibroblast proliferation
# Assay: Cyquant Cell Proliferation Assay
# Type: cell-based
# Protocol: For purposes of the present invention, proliferation is assessed using the Cyquant® Cell Proliferation Assay from Molecular Probes. This assay measures increased production of cellular nucleic acids that, in turn, results in increased binding of fluorescent dye.
Compound,increase fibroblast proliferation (qualitative),increase fibroblast proliferation
"CCCCCCCCCCCCCC(=O)N[C@@H](CC(C)C)C(=O)N[C@@H](CO)C(=O)N[C@@H](CCCCN)C(=O)N[C@@H](CCCCN)C(N)=O [P372, Myr-LSKK-amide] (Myristoyl-LSKK-NH2)",increase fibroblast proliferation,–
"CCCCCCCCCCCCCC(=O)N[C@@H](C)C(=O)N[C@@H](C)C(=O)N[C@@H](CCCCN)C(=O)N[C@@H](CCCNC(=N)N)C(N)=O [P400, Myr-AAKR-amide] (Myristoyl-AAKR-NH2)",increase fibroblast proliferation,–
Pal-VGVAPG-amide (Palmitoyl-VGVAPG-NH2; SMILES CCCCCCCCCCCCCCCC(=O)N[C@H](C(=O)NCC(=O)N[C@H](C(=O)N[C@@H](C)C(=O)N1CCC[C@H]1C(=O)NCC(N)=O)C(C)C)C(C)C) [P247],–,at least 30%
"CCCCCCCCCCCCCC(=O)N[C@@H](CO)C(=O)N[C@@H](CCCCN)C(=O)N[C@@H](CCCCN)C(=O)N[C@@H](C)C(=O)N[C@@H](CC(C)C)C(=O)N[C@H](CCCCN)C(N)=O [P408, Myr-SKKAL-[K]^D-amide] (Myristoyl-SKKAL[dK]-NH2)",increase fibroblast proliferation,–
"CCCCCCCCCCCCCC(=O)NCC(=O)N[C@@H](CCCNC(=N)N)C(=O)N[C@@H](CCCCN)C(=O)NCC(=O)N[C@@H](CC(=O)O)C(=O)O [P266, Myr-GRKGD-acid] (Myristoyl-GRKGD-OH)",increase fibroblast proliferation,–
"CCCCCCCCCCCCCC(=O)N[C@@H](CC(=O)O)C(=O)N[C@@H](CC(=O)O)C(=O)N[C@@H](C)C(=O)N[C@@H](CC(=O)O)C(=O)O [P389, Myr-DDAD-acid] (Myristoyl-DDAD-OH)",increase fibroblast proliferation,–
"CCCCCCCCCCCCCC(=O)N[C@@H](CCCCN)C(=O)N[C@@H](CC(C)C)C(=O)N[C@@H](C)C(=O)N[C@@H](CCCCN)C(=O)N[C@H](CCCCN)C(N)=O [P414, Myr-KLAK-[K]^D-amide] (Myristoyl-KLAK[dK]-NH2)",increase fibroblast proliferation,–
"CCCCCCCCCCCCCC(=O)N[C@@H](CC(=O)O)C(=O)N[C@@H](C)C(=O)N[C@@H](CC(=O)O)C(=O)O [P388, Myr-DAD-acid] (Myristoyl-Asp-Ala-Asp-OH)",increase fibroblast proliferation,–
"CCCCCCCCCCCCCC(=O)N[C@H](C(=O)N[C@H](C(=O)N[C@H](C(=O)N[C@H](C(=O)N[C@H](C(=O)N[C@@H](CCCCN)C(N)=O)[C@@H](C)CC)[C@@H](C)CC)[C@@H](C)CC)[C@@H](C)CC)[C@@H](C)CC [P417, Myr-IIIIIK-amide] (Myristoyl-IIIIIK-NH2)",increase fibroblast proliferation,–
"CCCCCCCCCCCCCC(=O)N[C@@H](CC(=O)O)C(=O)N[C@@H](CC(=O)O)C(=O)N[C@@H](CO)C(=O)N[C@@H](CO)C(=O)N[C@@H](CCCCN)C(=O)N[C@@H](CCCCN)C(N)=O [P411, Myr-DDSSKK-amide] (Myristoyl-DDSSKK-NH2)",increase fibroblast proliferation,–
"CCCCCCCCCCCCCC(=O)N[C@@H](C)C(=O)N[C@@H](CCCCN)C(=O)N[C@@H](CCCCN)C(=O)N[C@@H](CC(C)C)C(=O)N[C@@H](C)C(=O)N[C@@H](CCCCN)C(=O)O [P256, Myr-AKKLAK-acid] (Myristoyl-AKKLAK-OH)",increase fibroblast proliferation,–
"CCCCCCCCCCCCCC(=O)N[C@H](C(=O)N[C@@H](CCCCN)C(=O)N[C@H](C(=O)N[C@H](C(=O)N[C@@H](CCCCN)C(N)=O)[C@@H](C)O)[C@@H](C)O)[C@@H](C)O [P228, Myr-TKTTK-amide] (Myristoyl-TKTTK-NH2)",increase fibroblast proliferation,–
"CCCCCCCCCCCCCC(=O)N[C@H](C(=O)N[C@H](C(=O)N[C@H](C(=O)N[C@@H](CCCCN)C(=O)N[C@@H](CCCCN)C(N)=O)[C@@H](C)CC)[C@@H](C)CC)[C@@H](C)CC [P418, Myr-IIIKK-amide] (Myristoyl-IIIKK-NH2)",increase fibroblast proliferation,–
"CCCCCCCCCCCCCC(=O)NCC(=O)N[C@@H](C)C(=O)N[C@@H](CCCNC(=N)N)C(=O)O [P257, Myr-GAR-acid] (Myristoyl-Gly-Ala-Arg-OH)",increase fibroblast proliferation,–
Myr-KGL-[K]^D-amide (Myristoyl-KGL[dK]-NH2; SMILES CCCCCCCCCCCCCC(=O)N[C@@H](CCCCN)C(=O)NCC(=O)N[C@@H](CC(C)C)C(=O)N[C@H](CCCCN)C(N)=O) [P405],increase fibroblast proliferation,–
Pal-KKLAK-amide (Palmitoyl-KKLAK-NH2; SMILES CCCCCCCCCCCCCCCC(=O)N[C@@H](CCCCN)C(=O)N[C@@H](CCCCN)C(=O)N[C@@H](CC(C)C)C(=O)N[C@@H](C)C(=O)N[C@@H](CCCCN)C(N)=O) [P333],increase fibroblast proliferation,–
Myr-K-[K]^D-A-[L]^D-amide [P361],increase fibroblast proliferation,–
"CCCCCCCCCCCCCC(=O)N[C@@H](CC(C)C)C(=O)N[C@@H](CCCCN)C(=O)N[C@@H](CCCCN)C(=O)N[C@@H](C)C(=O)N[C@@H](CC(C)C)C(=O)N[C@H](CCCCN)C(=O)O [P406, Myr-LKKAL-[K]^D-acid] (Myristoyl-LKKAL[dK]-OH)",increase fibroblast proliferation,–
"CCCCCCCCCCCCCC(=O)N[C@@H](CCCCN)C(=O)N[C@@H](CCCCN)C(=O)NCC(=O)N[C@@H](CCC(=O)O)C(=O)N[C@@H](CCSC)C(=O)O [P293, Myr-KKGEM-acid] (Myristoyl-KKGEM-OH)",increase fibroblast proliferation,–
Myr-KKALKL-amide (Myristoyl-KKALKL-NH2; SMILES CCCCCCCCCCCCCC(=O)N[C@@H](CCCCN)C(=O)N[C@@H](CCCCN)C(=O)N[C@@H](C)C(=O)N[C@@H](CC(C)C)C(=O)N[C@@H](CCCCN)C(=O)N[C@@H](CC(C)C)C(N)=O) [P380],increase fibroblast proliferation,–
"CCCCCCCC(=O)NCC(=O)N[C@@H](CCCNC(=N)N)C(=O)NCC(=O)N[C@@H](CC(=O)O)C(=O)N[C@@H](CO)C(N)=O [P387, Oct-GRGDS-amide]",increase fibroblast proliferation,–
"CCCCCCCCCCCCCC(=O)N[C@@H](CCCCN)C(=O)N[C@@H](CC(C)C)C(=O)N[C@@H](C)C(=O)N[C@@H](CCCCN)C(=O)N[C@@H](CCCCN)C(=O)N[C@@H](C)C(=O)O [P252, Myr-KLAKKA-acid] (Myristoyl-KLAKKA-OH)",increase fibroblast proliferation,–
Dod-KKALK-amide [P328],increase fibroblast proliferation,–
Pal-AARK-amide (Palmitoyl-AARK-NH2; SMILES CCCCCCCCCCCCCCCC(=O)N[C@@H](C)C(=O)N[C@@H](C)C(=O)N[C@@H](CCCNC(=N)N)C(=O)N[C@@H](CCCCN)C(N)=O) [P397],increase fibroblast proliferation,–
"CCCCCCCCCCCCCC(=O)N[C@@H](CC(=O)O)C(=O)N[C@@H](CC(=O)O)C(=O)N[C@@H](CC(C)C)C(=O)N[C@@H](C)C(=O)N[C@@H](CCCCN)C(=O)N[C@@H](CCCCN)C(N)=O [P412, Myr-DDLAKK-amide] (Myristoyl-DDLAKK-NH2)",increase fibroblast proliferation,–
"CCCCCCCCCCCCCC(=O)NCC(=O)N[C@@H](CCCNC(=N)N)C(=O)NCC(=O)N[C@@H](CC(=O)O)C(=O)N[C@@H](CO)C(N)=O [P382, Myr-GRGDS-amide]",increase fibroblast proliferation,–
"CCCCCCCCCCCCCC(=O)N[C@@H](CCCCN)C(=O)N[C@H](C(=O)N[C@@H](C)C(=O)N[C@@H](CCCCN)C(=O)N[C@H](CCCCN)C(N)=O)[C@@H](C)CC [P401, Myr-KIAK-[K]^D-amide] (Myristoyl-KIAK[dK]-NH2)",increase fibroblast proliferation,–

# Tested on: P. cepacia
# Assay: Minimum inhibitory concentration, P. cepacia
# Type: cell-based, Pseudomonas cepacia
# Text: By “antimicrobial” activity is meant the ability to inhibit the growth of at least one microbial organism selected from the group consisting E. coli, P. aeruginosa, S. aureus and C. albicans, as confirmed by optical density measurement (“OD”). By “inhibition of growth” is meant reduction or absence of an increase greater than 5% in OD, a dimensionless measure of turbidity that is proportional to the amount of microbial cells present in a sample. For illustrative purposes, a OAB according to the present invention is added to a culture plate on which E. coli is present at a final concentration of about 5×10^3 cfu/ml. The plate is then incubated at about 37° C. for about 24 hours at which time the E. coli is resuspended by shaking, and OD is measured at about 600 nm. Thus, a reduction or absence of an increase greater than 5% in OD confirms the antimicrobial nature of the OAB with respect to E. coli. Minimum inhibitory concentration (“MIC”) is a method well-known to those of skill in the art for expressing antimicrobial activity. A compound to be tested is serially diluted into growth medium, inoculated with culture and then incubated. The MIC is the lowest dilution of compound that inhibits or prevents growth of the target microorganism.
row,Compound,MIC(P. cepacia)
1,"CCCCCCCCCCCCCC(=O)N[C@@H](CC(C)C)C(=O)N[C@@H](CO)C(=O)N[C@@H](CCCCN)C(=O)N[C@@H](CCCCN)C(N)=O [P372, Myr-LSKK-amide] (Myristoyl-LSKK-NH2)",≤ 100 ppm
2,"CCCCCCCCCCCCCC(=O)N[C@@H](C)C(=O)N[C@@H](C)C(=O)N[C@@H](CCCCN)C(=O)N[C@@H](CCCNC(=N)N)C(N)=O [P400, Myr-AAKR-amide] (Myristoyl-AAKR-NH2)",≤ 100 ppm
3,"CCCCCCCCCCCCCC(=O)N[C@@H](CO)C(=O)N[C@@H](CCCCN)C(=O)N[C@@H](CCCCN)C(=O)N[C@@H](C)C(=O)N[C@@H](CC(C)C)C(=O)N[C@H](CCCCN)C(N)=O [P408, Myr-SKKAL-[K]^D-amide] (Myristoyl-SKKAL[dK]-NH2)",≤ 100 ppm
4,"CCCCCCCCCCCCCC(=O)N1CCC[C@H]1C(=O)N[C@@H](CCCCN)C(=O)N[C@@H](CCCCN)C(=O)N[C@@H](C)C(=O)N[C@@H](CC(C)C)C(=O)N[C@@H](CCCCN)C(N)=O [P364, Myr-PKKALK-amide] (Myristoyl-PKKALK-NH2)",≤ 100 ppm
5,"CCCCCCCCCCCCCC(=O)N[C@@H](CCCCN)C(=O)N[C@@H](CCCCN)C(=O)N[C@@H](CC(C)C)C(=O)N[C@@H](C)C(=O)N[C@H](CCCCN)C(N)=O [P365, Myr-KKLA-[K]^D-amide] (Myristoyl-KKLA[dK]-NH2)",≤ 100 ppm
6,"CCCCCCCCCCCCCCCC(=O)N[C@@H](C)C(=O)N[C@@H](C)C(=O)N[C@@H](CCCCN)C(=O)N[C@@H](CCCNC(=N)N)C(N)=O [P398, Pal-AAKR-amide] (Palmitoyl-AAKR-NH2)",≤ 100 ppm
7,"CCCCCCCCCCCCCC(=O)N[C@H](CC(C)C)C(=O)N[C@H](CCCCN)C(=O)N[C@H](CCCCN)C(=O)N[C@H](C)C(=O)N[C@H](CC(C)C)C(=O)N[C@H](CCCCN)C(=O)O [P286, Myr-d-[LKKALK]-acid] (Myristoyl-[dL][dK][dK][dA][dL][dK]-OH)",≤ 100 ppm
